Reference: the supplement of paper PMC11451515

Key:
Details in all cases: 48 h
SEM cells [1] = experiment: cell viability relative to DMSO control; higher = less cytotoxic
Summary of the method: (§1)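 Cells were incubated for 48 h at 37°C before CellTiter-Glo One luminescence was read. The cells were NOMO1 or SEM (500 cells/well) or P12-Ichikawa (1000 cells/well) leukemia cells, adapted for at least four passages in each medium and seeded in 1536-well plates (5 μl). Dosing used library compounds in DMSO applied by pin over 11 threefold points, 47 μM to 0.79 nM. Viability is the per-plate percentage of DMSO wells, with cell-free wells as background.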

NOMO1 [2] = experiment: as above
Summary of the method: as §1

P12-Ichikawa [3] = experiment: as above
Summary of the method: as §1

SEM cells [4] = experiment: AUC of viability dose-response curve (% viability x log10 dose units); higher = less sensitive
Summary of the method: (§2)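 Leukemia cells adapted to each medium were seeded in 1536-well plates (500 or 1000 cells/well). They were dosed with library compounds in DMSO at 11 threefold doses, 47 μM to 0.79 nM, for 48 h at 37°C. CellTiter-Glo One luminescence was normalised per plate to DMSO and cell-free wells. Area under the curve was integrated by trapezoidal rule over log10 doses on a four-parameter log-logistic fit; curves exceeding full viability were scaled and curves failing quality control removed.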

NOMO1 [5] = experiment: as above
Summary of the method: as §2

P12-Ichikawa [6] = experiment: as above
Summary of the method: as §2

C[C@H](NC(=O)c1sccc1OCc1ccc(Cl)cc1)c1ccccc1
cell viability [%]
Details	NOMO1 [2]	P12-Ichikawa [3]	SEM cells [1]
HPLM + 10% dialyzed FBS, 0.000781 µM	80.8	97.3	98.8
HPLM + 10% dialyzed FBS, 0.00234 µM	88.2	87.7	94.4
HPLM + 10% dialyzed FBS, 0.00702 µM	80	88.8	82.9
HPLM + 10% dialyzed FBS, 0.0211 µM	77.6	83.9	88.2
HPLM + 10% dialyzed FBS, 0.0632 µM	91.5	84.4	94.8
HPLM + 10% dialyzed FBS, 0.19 µM	87.5	78	83.4
HPLM + 10% dialyzed FBS, 0.569 µM	69.1	86.3	91.1
HPLM + 10% dialyzed FBS, 1.71 µM	68.5	87.2	92.5
HPLM + 10% dialyzed FBS, 5.12 µM	86.9	81.2	69.5
HPLM + 10% dialyzed FBS, 15.4 µM	80.1	86.2	80.1
HPLM + 10% dialyzed FBS, 46.1 µM	69	82.7	51
RPMI 5 mM glucose + 10% FBS, 0.000781 µM	85.6	84.7	96.9
RPMI 5 mM glucose + 10% FBS, 0.00234 µM	83.6	84.5	90.9
RPMI 5 mM glucose + 10% FBS, 0.00702 µM	72.4	80.8	92.5
RPMI 5 mM glucose + 10% FBS, 0.0211 µM	82.2	85.2	106
RPMI 5 mM glucose + 10% FBS, 0.0632 µM	94.3	92	112
RPMI 5 mM glucose + 10% FBS, 0.19 µM	77.9	86.4	95.6
RPMI 5 mM glucose + 10% FBS, 0.569 µM	83.1	81	85.1
RPMI 5 mM glucose + 10% FBS, 1.71 µM	78.7	85	112
RPMI 5 mM glucose + 10% FBS, 5.12 µM	77.7	74.5	73.3
RPMI 5 mM glucose + 10% FBS, 15.4 µM	81.1	83.5	115
RPMI 5 mM glucose + 10% FBS, 46.1 µM	77.5	78	20.4
RPMI 5 mM glucose + 10% dialyzed FBS, 0.000781 µM	91.3	84.6	107
RPMI 5 mM glucose + 10% dialyzed FBS, 0.00234 µM	83.6	90	97.3
RPMI 5 mM glucose + 10% dialyzed FBS, 0.00702 µM	77.9	91.9	94.7
RPMI 5 mM glucose + 10% dialyzed FBS, 0.0211 µM	90.7	88.3	94.1
RPMI 5 mM glucose + 10% dialyzed FBS, 0.0632 µM	82	88.4	101
RPMI 5 mM glucose + 10% dialyzed FBS, 0.19 µM	76.2	83.2	101
RPMI 5 mM glucose + 10% dialyzed FBS, 0.569 µM	66.8	91.1	97.9
RPMI 5 mM glucose + 10% dialyzed FBS, 1.71 µM	82.6	77.1	101
RPMI 5 mM glucose + 10% dialyzed FBS, 5.12 µM	90.8	74.5	70.1
RPMI 5 mM glucose + 10% dialyzed FBS, 15.4 µM	77.7	82.1	99.6
RPMI 5 mM glucose + 10% dialyzed FBS, 46.1 µM	87.8	86	59.3

AUC of viability dose-response curve
Details	NOMO1 [5]	P12-Ichikawa [6]	SEM cells [4]
HPLM + 10% dialyzed FBS	382	407	408
RPMI 5 mM glucose + 10% FBS	388	398	449
RPMI 5 mM glucose + 10% dialyzed FBS	394	407	450
